The values that follow come from US20220380319A1 (Bial - R&D Investments, S.A., priority 2019, published 2022).

The target in one data set is T1, acid ceramidase (Homo sapiens, UniProt Q13510).
T1 construct: Cell lysates overexpressing acid ceramidase were used as the enzyme source; expressed in transfected cells
T1 sequence (Q13510 22-395): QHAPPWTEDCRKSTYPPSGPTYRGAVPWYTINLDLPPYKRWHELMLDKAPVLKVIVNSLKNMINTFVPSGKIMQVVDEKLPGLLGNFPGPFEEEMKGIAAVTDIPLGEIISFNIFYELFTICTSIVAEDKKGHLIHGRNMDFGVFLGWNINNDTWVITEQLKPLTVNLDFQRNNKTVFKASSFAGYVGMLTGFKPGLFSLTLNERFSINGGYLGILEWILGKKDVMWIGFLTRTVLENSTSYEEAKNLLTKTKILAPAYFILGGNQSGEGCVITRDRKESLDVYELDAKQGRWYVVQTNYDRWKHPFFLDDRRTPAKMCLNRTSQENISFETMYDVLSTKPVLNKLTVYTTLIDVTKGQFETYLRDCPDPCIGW
The data set is described as follows: Acid ceramidase inhibition, biochemical fluorescent assay with cell lysates overexpressing acid ceramidase, substrate Rbm14-12. The following applies: substrate Rbm14-12 6.3 μM. An outline of the steps:
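IC50 derived by four-parameter fitting of fluorescence (ex360 nm, em446 nm) produced after 1 hr in methanol/NaIO4/glycine stop buffer, pH 10.6. Reaction: 6.3 μM Rbm14-12, 1 hr RT, following 1 hr RT compound preincubation with 10 μg overexpressing-cell lysate protein in pH 4.5 NaAC/NaCl buffer.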

A short description of data set [1]: Compound solubility in water.
Setting [2] is: pH 4.5, 1 hr preincubation at RT.

In brackets after ≈: the same amount, converted by molar mass.

On acid ceramidase (setting [2]), `COc1cc(N2CCCCC2)c2ncn(C(=O)NCCCCC3CC3)c2c1` [Example 132, N-(4-Cyclopropylbutyl)-6-methoxy-4-(piperidin-1-yl)-1H-benzo[d]imidazole-1-carboxamide] registered an IC50 below 200 nM. Moreover, in data set [1], the solubility is 0.2 µg/mL (≈ 0.54 µM).

In the case of `COc1nc2ccc(N3CCOCC3)cc2n1C(=O)NCCCCc1ccccc1` [Example 133a, 2-Methoxy-6-morpholino-N-(4-phenylbutyl)-1H-benzo[d]imidazole-1-carboxamide], on acid ceramidase (setting [2]), the IC50 was below 200 nM. Also, in data set [1], the solubility turned out to be 1 µg/mL (≈ 2.45 µM).

Take `COc1nc2cc(N3CCOCC3)ccc2n1C(=O)NCCCCc1ccccc1` [Example 133b, 2-methoxy-5-morpholino-N-(4-phenylbutyl)-1H-benzo[d]imidazole-1-carboxamide]: the IC50 against acid ceramidase (setting [2]) is below 200 nM. The solubility in data set [1] stood at 2 µg/mL (≈ 4.9 µM).

Take `COc1nc2ccc(N3CCOCC3)cc2n1C(=O)NCCCc1ccccc1` [Example 134a, 2-Methoxy-6-morpholino-N-(3-phenylpropyl)-1H-benzo[d]imidazole-1-carboxamide]: at acid ceramidase (setting [2]), the IC50 is below 200 nM. The solubility in data set [1] is 17 µg/mL (≈ 43.1 µM).

On acid ceramidase (setting [2]), `COc1nc2cc(N3CCOCC3)ccc2n1C(=O)NCCCc1ccccc1` [Example 134b, 2-methoxy-5-morpholino-N-(3-phenylpropyl)-1H-benzo[d]imidazole-1-carboxamide] registered an IC50 below 200 nM. Moreover, in data set [1], the solubility was found to be 16 µg/mL (≈ 40.6 µM).

In turn, `COc1nc2cccnc2n1C(=O)NCCCCn1ccc(C(C)(C)C)n1` [Example 135a, N-(4-(3-(tert-Butyl)-1H-pyrazol-1-yl)butyl)-2-methoxy-3H-imidazo[4,5-b]pyridine-3-carboxamide] came in with an IC50 at acid ceramidase (setting [2]) below 200 nM. The compound further returned a solubility in data set [1] of 15 µg/mL (≈ 40.5 µM).

`COc1cc(C2CCN(C)CC2)c2ncn(C(=O)NCCCCc3ccccc3)c2c1` [Example 136, 6-Methoxy-4-(1-methylpiperidin-4-yl)-N-(4-phenylbutyl)-1H-benzo[d]imidazole-1-carboxamide] showed an IC50 at acid ceramidase (setting [2]) below 200 nM. This compound gave a solubility in data set [1] of 21 µg/mL (≈ 49.9 µM).

At acid ceramidase (setting [2]), `O=C(NCCCCc1ccccc1)n1cnc2c(N3CCOCC3)cccc21` [Example 137, 4-Morpholino-N-(4-phenylbutyl)-1H-benzo[d]imidazole-1-carboxamide] showed an IC50 below 200 nM. Besides, the concentration in solution in data set [1] (solubility) came to 0.6 µg/mL (≈ 1.59 µM).

On acid ceramidase (setting [2]), `COc1nc2c(C#N)cccc2n1C(=O)NCCCCc1ccccc1` [Example 138, 4-Cyano-2-methoxy-N-(4-phenylbutyl)-1H-benzo[d]imidazole-1-carboxamide] showed an IC50 below 200 nM. Also, the concentration in solution in data set [1] (solubility) was 0.3 µg/mL (≈ 0.861 µM).

For `COc1nc2c(C#N)cccc2n1C(=O)NCC1CCC(F)(F)CC1` [Example 139, 4-Cyano-N-((4,4-difluorocyclohexyl)methyl)-2-methoxy-1H-benzo[d]imidazole-1-carboxamide], the IC50 against acid ceramidase (setting [2]) was below 200 nM. Also, the solubility in data set [1] came to 9 µg/mL (≈ 25.8 µM).

The compound `COc1nc2c(C#N)cccc2n1C(=O)NCC#CC(C)C` [Example 140, 4-Cyano-2-methoxy-N-(4-methylpent-2-ynyl)-1H-benzo[d]imidazole-1-carboxamide] yielded an IC50 at acid ceramidase (setting [2]) below 200 nM. Moreover, the solubility in data set [1] was found to be 10 µg/mL (≈ 33.7 µM).

Compound `O=C(NCCCC1CC1)n1cnc2c(N3CCOCC3)cccc21` [Example 141, N-(3-Cyclopropylpropyl)-4-morpholino-1H-benzo[d]imidazole-1-carboxamide] had an IC50 against acid ceramidase (setting [2]) below 200 nM. In data set [1], the solubility is 15 µg/mL (≈ 45.7 µM).

The compound `O=C(NCCCc1ccccc1)n1cnc2c(N3CCOCC3)cccc21` [Example 142, 4-Morpholino-N-(3-phenylpropyl)-1H-benzo[d]imidazole-1-carboxamide] had an IC50 on acid ceramidase (setting [2]) below 200 nM. In addition, the concentration in solution in data set [1] (solubility) came to 1.4 µg/mL (≈ 3.84 µM).

`CC(C)CCNC(=O)n1cnc2c(N3CCC(F)(F)CC3)cccc21` [Example 143, 4-(4,4-Difluoropiperidin-1-yl)-N-isopentyl-1H-benzo[d]imidazole-1-carboxamide] displayed an IC50 against acid ceramidase (setting [2]) of 200 to 1000 nM. Moreover, the solubility in data set [1] was found to be 2 µg/mL (≈ 5.71 µM).

As for `COc1nc2c(N3CCC(F)(F)CC3)cccc2n1C(=O)NCCC(C)C` [Example 144, 4-(4,4-Difluoropiperidin-1-yl)-N-isopentyl-2-methoxy-1H-benzo[d]imidazole-1-carboxamide], the IC50 on acid ceramidase (setting [2]) is above 1000 nM. In data set [1], this compound registered a solubility of 1.2 µg/mL (≈ 3.15 µM).

The compound `COc1nc2c(N3CCN(C)CC3)cccc2n1C(=O)NCCC(C)C` [Example 145, N-iso-Pentyl-2-methoxy-4-(4-methylpiperazin-1-yl)-1H-benzo[d]imidazole-1-carboxamide] came in with an IC50 on acid ceramidase (setting [2]) above 1000 nM. In data set [1], the solubility turned out to be 46 µg/mL (≈ 128 µM).

`COc1nc2c(N3CCOCC3)cccc2n1C(=O)NCCC(C)C` [Example 146, N-iso-Pentyl-2-methoxy-4-morpholino-1H-benzo[d]imidazole-1-carboxamide] registered an IC50 against acid ceramidase (setting [2]) above 1000 nM. Further, in data set [1], the concentration in solution (solubility) was 17 µg/mL (≈ 49.1 µM).

Turning to `CC(C)CCNC(=O)n1cnc2c(N3CCN(C4CC4)CC3)cccc21` [Example 147, 4-(4-Cyclopropylpiperazin-1-yl)-N-iso-pentyl-1H-benzo[d]imidazole-1-carboxamide], the concentration for half-maximal inhibition (IC50) at acid ceramidase (setting [2]) was in the range of 200 to 1000 nM. The amount in solution in data set [1] (solubility) came to 14 µg/mL (≈ 39.4 µM).

At acid ceramidase (setting [2]), `O=C(NC1CCCCC1)n1cnc2c(N3CCN(C4CC4)CC3)cccc21` [Example 148, N-Cyclohexyl-4-(4-cyclopropylpiperazin-1-yl)-1H-benzo[d]imidazole-1-carboxamide] gave an IC50 above 1000 nM. The compound further yielded a solubility in data set [1] of 3 µg/mL (≈ 8.16 µM).

Compound `O=C(NC1CCCCC1)n1cnc2c(N3CCOCC3)cccc21` [Example 149, N-Cyclohexyl-4-morpholino-1H-benzo[d]imidazole-1-carboxamide] displayed an IC50 on acid ceramidase (setting [2]) above 1000 nM. In addition, the solubility in data set [1] was 15 µg/mL (≈ 45.7 µM).

At acid ceramidase (setting [2]), `O=C(NCCCc1ccccc1)n1cnc2c(N3CCN(C4CC4)CC3)cccc21` [Example 150, 4-(4-Cyclopropylpiperazin-1-yl)-N-(3-phenylpropyl)-1H-benzo[d]imidazole-1-carboxamide] gave an IC50 below 200 nM. For the same compound, the solubility in data set [1] was 1.5 µg/mL (≈ 3.72 µM).

`CC(C)CCNC(=O)n1cnc2c(N3CCCCC3)cccc21` [Example 151, N-iso-Pentyl-4-(piperidin-1-yl)-1H-benzo[d]imidazole-1-carboxamide]: the IC50 on acid ceramidase (setting [2]) was in the range of 200 to 1000 nM. Moreover, the concentration in solution in data set [1] (solubility) was 2 µg/mL (≈ 6.36 µM).

On acid ceramidase (setting [2]), `CC(C)CCNC(=O)n1cnc2c(N3CCN(CC4CC4)CC3)cccc21` [Example 152, 4-(4-(Cyclopropylmethyl)piperazin-1-yl)-N-iso-pentyl-1H-benzo[d]imidazole-1-carboxamide] gave an IC50 of 200 to 1000 nM. The compound also had a solubility in data set [1] of 20 µg/mL (≈ 54.1 µM).

Compound `CC(C)CCNC(=O)n1cnc2c(N3CCN(CC(F)(F)F)CC3)cccc21` [Example 153, N-iso-Pentyl-4-(4-(2,2,2-trifluoroethyl)piperazin-1-yl)-1H-benzo[d]imidazole-1-carboxamide] yielded an IC50 at acid ceramidase (setting [2]) of 200 to 1000 nM. In addition, the solubility in data set [1] is 10 µg/mL (≈ 25.2 µM).

The compound `CC(C)CCNC(=O)n1cnc2c(N3CCN(C4COC4)CC3)cccc21` [Example 154, N-iso-Pentyl-4-(4-(oxetan-3-yl)piperazin-1-yl)-1H-benzo[d]imidazole-1-carboxamide] yielded an IC50 against acid ceramidase (setting [2]) of 200 to 1000 nM. This compound yielded a solubility in data set [1] of 30 µg/mL (≈ 80.8 µM).

`CC(C)CCNC(=O)n1cnc2c(N3CCN(C4CCOCC4)CC3)cccc21` [Example 155, N-iso-Pentyl-4-(4-(tetrahydro-2H-pyran-4-yl)-piperazin-1-yl)-1H-benzo[d]imidazole-1-carboxamide] returned an IC50 against acid ceramidase (setting [2]) of 200 to 1000 nM. Further, the solubility in data set [1] is 30 µg/mL (≈ 75.1 µM).

On to `CC(C)CCNC(=O)n1cnc2c(N3CCN(c4cccc5cncn45)CC3)cccc21` [Example 156, 4-(4-(Imidazo[1,5-a]pyridin-5-yl)piperazin-1-yl)-N-iso-pentyl-1H-benzo[d]imidazole-1-carboxamide], for which, at acid ceramidase (setting [2]), the IC50 fell in the range of 200 to 1000 nM. Also, in data set [1], the solubility worked out at 0.2 µg/mL (≈ 0.463 µM).

For `CC(C)CCNC(=O)n1cnc2c(N3CCN(C)C4(CC4)C3)cccc21` [Example 157, N-iso-Pentyl-4-(4-methyl-4,7-diazaspiro[2.5]-octan-7-yl)-1H-benzo[d]imidazole-1-carboxamide], at acid ceramidase (setting [2]), the IC50 lay within 200 to 1000 nM. For the same compound, in data set [1], the concentration in solution (solubility) was 27 µg/mL (≈ 76 µM).

With `CC(C)CCNC(=O)n1cnc2c(N3CCN4CCCC4C3)cccc21` (stereo not shown) [Example 158, 4-(Hexahydropyrrolo[1,2-a]pyrazin-2(1H)-yl)-N-iso-pentyl-1H-benzo[d]imidazole-1-carboxamide], the IC50 against acid ceramidase (setting [2]) fell in the range of 200 to 1000 nM. In data set [1], this compound had a solubility of 17 µg/mL (≈ 47.8 µM).

`CC(C)CCNC(=O)n1cnc2c(N3CC4CC3CN4C)cccc21` (stereo not shown) [Example 159, N-iso-Pentyl-4-(5-methyl-2,5-diazabicyclo[2.2.1]heptan-2-yl)-1H-benzo[d]imidazole-1-carboxamide]: the IC50 on acid ceramidase (setting [2]) lay within 200 to 1000 nM. In data set [1], this compound showed a solubility of 33 µg/mL (≈ 96.6 µM).

Consider `CC(C)CCNC(=O)n1cnc2c(N3CC4CC(C3)N4C)cccc21` [Example 160, N-iso-Pentyl-4-(6-methyl-3,6-diazabicyclo[3.1.1]-heptan-3-yl)-1H-benzo[d]imidazole-1-carboxamide], for which, at acid ceramidase (setting [2]), the IC50 lay within 200 to 1000 nM. This compound also gave a solubility in data set [1] of 35 µg/mL (≈ 103 µM).

On to `CC(C)CCNC(=O)n1cnc2c(N3CC4CCC(C3)N4C)cccc21` [Example 161, N-iso-Pentyl-4-(8-methyl-3,8-diazabicyclo[3.2.1]-octan-3-yl)-1H-benzo[d]imidazole-1-carboxamide], for which the IC50 against acid ceramidase (pH 4.5) lay in the range of 200 to 1000 nM. Moreover, the solubility in data set [1] worked out at 35 µg/mL (≈ 98.5 µM).
